{"source": "paper PMC9983021", "about": "“Novel GluN2B-Selective NMDA Receptor Negative Allosteric Modulator Possesses Intrinsic Analgesic Properties and Enhances Analgesia of Morphine in a Rodent Tail Flick Pain Model” (ACS Chemical Neuroscience, 2023)", "key": {"C57BL/6J mice [1]": {"test_system": "C57BL/6J mice", "experiment": "Hot water tail immersion test, compound alone (intrinsic antinociception)", "assay_type": "in vivo", "conditions": "for dose at which significant increase in latency was achieved / dose at which significant latency increases were achieved: i.p.; for effect on tail flick latency vs vehicle / mean latency increase: i.p. 30 min prior to test; for effect on tail flick latency vs vehicle: n = 8 per group; for dose at which significant latency increases were achieved: lowest significant dose", "excerpt": "After evaluating EU93-108 in vitro, we next evaluated a panel of GluN2B inhibitors for their ability to produce an antinociceptive effect using a classical model of pain perception, determination of tail flick latency for mice when their tails are placed in hot water (Figures 4 and 5). The hot water tail immersion test is a well-validated method of assessing reflexive (i.e., spinal) pain-like response in rodents.[80]−[83] We interpret a drug-induced increase in tail flick latency as analgesia.\nThe inhibitors were injected i.p. 30 min prior to a hot water tail immersion test. Four treatment groups and one control group were used (n = 8 per group) where the control group received vehicle (10% DMSO, 20% PEG, 2% DMA in water) and groups 1 through 4 were randomly assigned one dose of the appropriate compound.\nAll animal studies performed at Emory have been approved by the Institutional Animal Care and Use Committee at Emory University. Male and female C57BL/6J mice weighing between 20 and 30 g were housed five per cage and given ad libitum access to food and water. The mice were 8–10 weeks of age at the time of experimentation. Animal holding rooms operated on a 12 h dark/light cycle with the dark cycle from 7:00 pm to 7:00 am. Mice were allowed to acclimate in cages for one week after arrival. The mice were handled regularly and habituated to scruffing and cloth restraint for 3–5 days prior to experimentation.\nMouse weights were recorded on the day of each experiment. Mice were given the appropriate treatment(s) 30 min prior to testing. All injection volumes were 10 mL/kg (e.g., 350 μL for a 35 g mouse). For the tail immersion experiments, each mouse was restrained with a Wypall cloth, leaving the tail exposed. The distal two-thirds of the tail was lowered into a sous vide water bath set to 48 °C, and a stopwatch with a resolution of 0.01 s was used to record the time elapsed between immersion and tail flick. Three recordings were taken for each mouse, and each data point is expressed as the mean of the three recordings. A cut-off time of 25 s was implemented to prevent tissue damage or scarring. For each experiment, the identities of the doses were coded by an independent researcher to ensure blinding. The identities were not decoded until the data were analyzed.\n(§1) Prism 9.3.1 software (GraphPad, San Diego, CA) was used for all data analysis and visualization. Data for intrinsic antinociception was analyzed using one-way ANOVA and Dunnett’s post hoc test for multiple comparisons where each group was compared to vehicle. Data for acute morphine potentiation experiments were analyzed using one-way ANOVA and Tukey’s post hoc test for multiple comparisons was also used, where each group mean was compared to the mean of every other group. Data for tolerance experiments were analyzed using repeated measures two-way ANOVA and Bonferroni post hoc analysis. Data are presented as mean ± SEM and p < 0.05 constitutes significance."}, "C57BL/6J mice [2]": {"test_system": "C57BL/6J mice", "experiment": "Preestablished morphine tolerance (tolerant mice, tail immersion test)", "assay_type": "in vivo", "conditions": "co-administered with morphine; males 10 mg/kg, females 20 mg/kg i.p.", "excerpt": "We next wanted to assess EU93-108 for effects on other facets of tolerance. Specifically, we were interested in whether EU93-108 could increase tail flick latency in mice that were already tolerant to morphine (i.e., preestablished tolerance). To assess the effect of EU93-108 on preestablished tolerance, five groups were used (n = 8 per group): vehicle/saline, vehicle/morphine, ifenprodil/morphine, EU93-108/saline, and EU93-108/morphine. All groups except for the vehicle/saline control group were administered morphine three times per day (according to the stair stepping protocol outlined in Figure 11) at gradually increasing doses from 25 to 40 mg/kg three times a day at 3–4 h intervals for three consecutive days until tolerance was observed on day 4 (Figure 12, black circles).\nFigure 11 Dosing regimen to assess effects of EU93-108 on tolerant mice. TIT = tail immersion test. All mice received morphine or saline three times a day according to the protocol in Figure 9. Doses of morphine are shown above the arrows, in mg/kg. Once tolerance was established on day 4, the mice were randomly assigned to receive vehicle, EU93-108, or ifenprodil once a day for two consecutive days. […]\nMouse weights were recorded on the day of each experiment. […] Three recordings were taken for each mouse, and each data point is expressed as the mean of the three recordings. […] The identities were not decoded until the data were analyzed.\nas §1, with “Data are presented as mean ± SEM and p < 0.05 constitutes significance.” left out"}}, "data": [{"molecule": "CS(=O)(=O)Nc1ccc(OC[C@@H](O)CNCCc2ccc(Cl)c(Cl)c2)cc1", "note": "[EU93-4]", "values": [{"measurement": "dose at which significant increase in latency was achieved", "setting": "C57BL/6J mice [1]; female mice", "result": 50, "unit": "mg/kg"}, {"measurement": "effect on tail flick latency vs vehicle", "setting": "C57BL/6J mice [1]; female mice", "result": "significant increases in latency at the highest doses tested"}, {"measurement": "mean latency increase", "setting": "C57BL/6J mice [1]; male mice", "result": 10, "unit": "s"}, {"measurement": "effect on tail flick latency vs vehicle", "setting": "C57BL/6J mice [1]; male mice", "result": "significant increases in tail flick latency at 50 mg/kg"}, {"measurement": "dose at which significant latency increases were achieved", "setting": "C57BL/6J mice [1]; male mice", "result": 50, "unit": "mg/kg"}]}, {"molecule": "CCCCN(CCc1ccc(Cl)c(Cl)c1)C[C@H](O)COc1ccc(NS(C)(=O)=O)cc1", "note": "[EU93-31]", "values": [{"measurement": "dose at which significant increase in latency was achieved", "setting": "C57BL/6J mice [1]; female mice", "result": 100, "unit": "mg/kg"}, {"measurement": "effect on tail flick latency vs vehicle", "setting": "C57BL/6J mice [1]; female mice", "result": "significant increases in latency at the highest doses tested"}, {"measurement": "mean latency increase", "setting": "C57BL/6J mice [1]; male mice", "result": 10, "unit": "s"}, {"measurement": "effect on tail flick latency vs vehicle", "setting": "C57BL/6J mice [1]; male mice", "result": "significant increases in latency at the two highest doses tested (50 and 100 mg/kg)"}, {"measurement": "dose at which significant latency increases were achieved", "setting": "C57BL/6J mice [1]; male mice", "result": 50, "unit": "mg/kg"}]}, {"molecule": "CN1CC[C@]23c4c5ccc(O)c4O[C@H]2[C@@H](O)C=C[C@H]3[C@H]1C5", "note": "[Morphine]", "values": [{"measurement": "ED50", "setting": "C57BL/6J mice [1]; Mus musculus, sc, 0.5 h, read-out: ED50 (tail flick latency), morphine dose-response curve", "result": 5.15, "unit": "mg/kg"}]}, {"molecule": "C[C@H](CN1CCC(Cc2ccccc2)CC1)[C@H](O)c1ccc(O)cc1", "note": "[Ro25-6981, reference compound]", "values": [{"measurement": "effect on tail flick latency vs vehicle", "setting": "C57BL/6J mice [1]; female mice", "result": "did not produce any significant increases in latency at the doses tested"}, {"measurement": "effect on tail flick latency vs vehicle", "setting": "C57BL/6J mice [1]; male mice", "result": "did not display significant increases in latency at the doses tested"}]}, {"molecule": "CC(C(O)c1ccc(O)cc1)N1CCC(Cc2ccccc2)CC1", "note": "(stereo not shown) [ifenprodil, reference compound]", "values": [{"measurement": "tail flick latency in morphine-tolerant mice, day 5 vs day 4", "setting": "C57BL/6J mice [2]", "result": "continued to decrease on day 5"}, {"measurement": "effect on tail flick latency vs vehicle", "setting": "C57BL/6J mice [1]; female mice", "result": "did not produce any significant increases in latency at the doses tested"}, {"measurement": "effect on tail flick latency vs vehicle", "setting": "C57BL/6J mice [1]; male mice", "result": "did not display significant increases in latency at the doses tested"}]}]}
